In article PMC10368370, “Development of o-aminobenzamide salt derivatives for improving water solubility and anti-undifferentiated gastric cancer” (Frontiers in Pharmacology, 2023):
“Also recorded” adds a separate entry of the source.

Legend:
E-cadherin = test: Immunohistochemical analysis of HGC-27 xenograft tumor; assay type: in vivo; details: vs blank group
Protocol: (§1) Then, immunohistochemical analysis was performed on the tumor of the HGC-27 xenograft tumor model. It is known that cyclin-dependent kinase 2 (CDK2) and CDK inhibitor p21 play pivotal parts in cell cycle regulation, while both downregulation of CDK2 or upregulation of p21 lead to cell cycle arrest ([[…] et al., 2019]; [Sturmlechner et al., 2021]). […] Ki-67 is an antigen associated with proliferating cells, which is usually positively correlated with tumor growth rate ([Menon et al., 2019]). […] Cleaved Caspase-3 is a pro-apoptotic protein, the higher the expression of this protein, the stronger […] ([Wei et al., 2020]). […] E-cadherin which is a type of cell surface transmembrane glycoprotein has an important influence on the cell-cell adhesion function. […] Representative tumor images of IHC analysis stained by CDK2, Cleaved Caspase-3, E-cadherin, KI-67 and p21. Magnification: × 400.

Ki-67 = test: as above; assay type: in vivo; details: vs blank group
Protocol: as §1

CDK2 = test: as above; assay type: in vivo; details: vs blank group
Protocol: as §1

Cleaved Caspase-3 = test: as above; assay type: in vivo; details: vs blank group
Protocol: as §1

p21 = test: as above; assay type: in vivo; details: vs blank group
Protocol: as §1

[1] = Solubility in aqueous solution (pure water, normal saline); assay type: physicochemical
HGC-27 xenograft = test: HGC-27 tumor xenograft model; assay type: in vivo, BALB/c nude mice; details: p.o., bid; for tumor growth inhibition (TGI): 14 days, HGC-27 xenograft
Protocol: 4-week-old male BALB/c nude mice weighing 18g–22 g were injected with 100 μL HGC-27 cells (2 × 10^6 cells) to establish an undifferentiated gastric cancer model.
(A) Tumor volumes plotted as mean ± SEM. (B) Mice weight curve during treatment plotted as mean ± SD. (C,D) Tumor weight and size on the final day.

HCC-1806 = test: MTT cytotoxicity / anti-proliferation assay; assay type: cell-based; details: HCC-1806, MTT, 72 h; read-out: IC50, cancer cell viability
MDA-MB-231 = test: MTT cytotoxicity / anti-proliferation assay; assay type: cell-based; details: MDA-MB-231, MTT, 72 h; read-out: IC50, cancer cell viability
Pharmacokinetic study = assay type: in vivo, SD rats
Protocol: 7–8-week Male SD rats weighing 180–220 g were allowed for this experiment. The rats were fasted 12 h except for water. The solution was administered to rats by intravenous injection of 10% ethanol +10% solutol as solvent and intragastric injection of 5% castor oil +5% solutol as solvent. The dose concentration was 8 mg/mL for intravenous injection and 10 mg/mL for gavage.
Twelve male SD rats were divided into 4 groups with 3 rats in each group. Group 1 was F8-intravenous injection group, the dose was 20 mg/kg; Group 2 was F8- intragastric administration group, the dose was 100 mg/kg; Group 3 was F8·2HCl-intragastric administration group, the dose was 100 mg/kg. Blank blood was collected before administration, and blood was collected at predetermined time points after administration:
Intravenous injection group: before administration, 2 min, 5 min, 15 min, 30 min, 1 h, 2 h, 4 h, 8 h, 12 h, 24 h. Intragastric administration group: Before administration, 5 min, 15 min, 30 min, 1 h, 2 h, 4 h, 6 h, 8 h, 12 h, 24 h. About 0.5 mL of blood was collected and placed in an EDTA-K2 tube at […]. The plasma was centrifuged and stored at −80°C. The samples were detected by liquid-mass spectrometry analysis system. The chromatographic column used was ODS-C18 (4.6 × 50 mm, 3 µm). The chromatographic conditions were as follows: Mobile phase A is aqueous phase, […] (including 0.1% formic acid); Mobile phase B is organic, 95% acetonitrile (containing 0.1% formic acid). Flow rate of 0.4 mL/min, column temperature: room temperature, according to the drug plasma concentration data, calculated pharmacokinetic parameters using DAS 2.0 software.
After oral administration, drugs need to go through four stages, namely, absorption, distribution, metabolism and excretion. However, the changes in solubility of drugs after salting only affect the absorption stage. Since absorption is accompanied by a dissolution process, the water solubility and dissolution rate of drugs are the main factors that determine their absorption, and then affect their oral bioavailability ([Elder et al., 2013]). Under the stimulation of cell activity and increased solubility, pharmacokinetic experiments were carried out to understand the drug exposure and provide a basis for further druggability of compound F8. In this study, compound F8 and F8·2HCl were administered in two different ways: tail vein injection (20 mg/kg) and gavage (100 mg/kg), and pharmacokinetic parameters were measured in Sprague-Dawley (SD) rats (Figures 3, 4).

HGC-27 cells = test: MTT cytotoxicity / anti-proliferation assay; assay type: cell-based, human; details: HGC-27, MTT, 72 h; read-out: IC50, cancer cell viability
Protocol: Undifferentiated human gastric cancer cell line (HGC-27) was purchased from the China Center for Type Collection (CCTCC, China) and used with 10% Foetal Bovine Serum (FBS, Gemini, Bio-Product, CA, United States), 1% penicillin streptomycin (PS) and 89% 1,640 medium ([…]) for culture. All cells were incubated at 37°C in a constant temperature incubator containing 95% air and 5% CO2.
To evaluate the cytotoxicity of F8 and related organic salts on HGC-27 cells, MTT analysis was performed. HGC-27 cells were digested with trypsin, then cells were spread into 96-well plates at a density of 3,000 cells/well and incubated for 12–16 h. After 12 h, the medium in 96-well plates was replaced with compounds containing 1, 0.5, 0.25, 0.125, 0.062, 0.0312 μM for another 72 h. Three days later, 20 μL MTT solution was added and incubated at 37°C for 4 h. Then 150 μL DMSO solution was added to each well after the fluid was removed, and the absorbance was detected by microplate reader. The compound dissolved in DMSO was added to the cell medium so that the final concentration of DMSO was less than 0.4%.
Infinite proliferation is one of the most prominent features of cancer cells, therefore, we evaluated the anti-proliferation activity of compounds F8 and related organic salts against human gastric carcinoma HGC-27 via MTT assay.

[2] = SD rats, 100 mg/kg, route ip (methods: intragastric), 100 mg/kg
[3] = SD rats, oral administration 100 mg/kg, 100 mg/kg

## O=C(NCc1ccc(NC(=O)c2cc(F)ccc2N2CCCC2)cc1)OCc1cccnc1 [F8·2HCl]
E-cadherin
  expression level of E-cadherin protein (IHC): increase the expression level; also recorded: increased
Ki-67
  expression of Ki-67 protein (IHC): significantly decreased
CDK2
  expression of CDK2 (IHC): declined dose-dependently; also recorded: significantly decreased
Cleaved Caspase-3
  expression of Cleaved Caspase-3 protein (IHC): significantly upregulated; also recorded: increased
p21
  level of p21 protein (IHC): significantly upregulated
[1]; F8·2HCl vs F8
  water solubility relative to compound F8: more than 50 times
[1]; normal saline, compared with pure water
  solubility in normal saline: not much different from pure water
[1]; pure water
  Solubility in aqueous solution: more than 50 mg/mL
HGC-27 xenograft; 37.5 mg/kg
  tumor growth inhibition (TGI): 60.6%
HGC-27 xenograft; 75 mg/kg
  tumor growth inhibition (TGI): 70.1%
HGC-27 xenograft; 37.5 and 75 mg/kg, during treatment
  body weight of mice vs control group: no significant weight loss
HGC-27 xenograft; 37.5 and 75 mg/kg, final day
  tumor weight vs control group: significant decrease in tumor weight
HCC-1806
  IC50: 16.2 ± 0.41 µM
MDA-MB-231
  IC50: 47 ± 0.62 µM
Pharmacokinetic study; [2]
  AUC (0-∞): 1770 ng·h/mL
  Cmax: 580 ng/mL
  T1/2: 3.63 h
  Tmax: 1.42 h
Pharmacokinetic study; SD rats, oral 100 mg/kg vs iv 20 mg/kg
  bioavailability: 5.06%
Pharmacokinetic study; [3]
  area under the concentration-time curve (AUC0-t): 1770 ng·h/mL
  peak plasma concentration: 0.58 µg/mL
Pharmacokinetic study; male, Sprague-Dawley, rat, plasma, po, 100 mg/kg, same oral dose, F8·2HCl vs F8
  half-life extension relative to F8: 1 h
Pharmacokinetic study; same oral dose, F8·2HCl vs F8
  increase of Tmax relative to F8: ~10 times
HGC-27 cells
  IC50: 0.25 ± 0.01 µM
